Measurements from patent US8017649B2, “Flavonoid compounds and uses thereof” (Howard Florey Institute of Experimental Physiology and …, priority 2005, dated 2011).
“Also recorded” adds a separate entry of the source.

Legend:
[1] = tested on: myocardial ischaemia and reperfusion; details: Wang et al., British Journal of Pharmacology (2004) 142, 443-452; cited from earlier work
[2] = tested on: superoxide anions generated in rat aorta; experiment: Superoxide anion production in rat isolated aortic segments (lucigenin chemiluminescence, NADPH); assay type: cell-based
Description: Superoxide anion production in rat isolated aortic segments was determined using lucigenin chemiluminescence. Aortic rings were prepared as described above and then placed in ice-cold Krebs-(N-[2-Hydroxyethyl]piperazine-N′-[2-ethanesulfonic acid] (HEPES buffer) (composition (mM); NaCl 99.0, KCl 4.7, KH2PO4 1.0, MgSO4·7H2O 1.2, D-glucose 11.0, NaHCO3 25.0, CaCl2·2H2O 2.5, Na-HEPES 20.0). Aortic rings were pre-incubated for 45 minutes at 37° C. with a pH 7.4, in Krebs-HEPES buffer containing diethylthiocarbamic acid (DETCA, 10^−3 M) to inactivate superoxide dismutase and β-nicotinamide adenine dinucleotide phosphate (NADPH, 10^−4 M) as a substrate for NADPH oxidase and either 3′,4′-dihydroxyflavonol (10^−4 M) as a positive control, vehicle, 3-hydroxyflavone-3-hemiadipate, 3′,4′-dihydroxy-3-hemiadipate, 3-hydroxyflavone-3-phosphate (10^−8-10^−4 M). Background photon emission was measured for 12 cycles in a 96-well Optiplate containing 0.3 ml per well of Krebs-HEPES buffer together with lucigenin (5×10^−5 M) and vehicle or flavonoid (10^−8-10^−4 M). Each cycle was counted every one minute. After background reading was completed the incubated aortic rings were transferred to the appropriate wells and photon emission was recounted as described above. The tissue was then placed in a 65° C. oven for 48 hours to allow superoxide production to be normalised to dry tissue weight.
The effects of vehicle, 3′,4′-dihydroxyflavone-3-hemiadipate (21) (DiOHF3HA, 10^−8 M-10^−4 M) and DiOHF (10^−4 M) in the presence and absence of Butyryl cholinesterase (BuCHE), 100, 300 and 1000 U/L) on the level of superoxide anions generated in rat isolated aortic segments in the presence of NADPH was expressed as a percentage of control. The method used was as described above except for the addition of the butyryl cholinesterase.
The effect of vehicle, 3-hydroxyflavone-3-phosphate (10^−8 to 10^−4 M) in the presence or absence of phosphatase (1000 U/L) on the level of superoxide anions generated in rat aorta in the presence of NADPH expressed as a percentage of control was determined as described above for the 3′,4′-dihydroxyflavone-3-hemiadipate.

[3] = tested on: endothelium intact aortic rings; experiment: Effect on ACh relaxation of precontracted rat aortic rings; assay type: cell-based; details: substance alone
Description: (§1) After wash out and re-equilibration for 30 min, the aortic rings were then submaximally precontracted with PE and U46619, which were used to produce an active tension of 45-60% of the KPSS-induced maximum contraction. When investigating the effects of the flavonoids, flavonol, flavone-3-hemiadipate (F3HA), 3′, 4′-dihydroxyflavone, 3′,4′-dihydroxyflavonol, 3′,4′-dihydroxyflavone-3-hemiadipate (DiOHF3HA), and flavone-3-phosphate (F3P) on vasorelaxant responses, rings were incubated with one of the compounds for 20 mins before they were precontracted submaximally, followed by a cumulative-concentration response curve to ACh (100 nM-10 μM) or SNP ([…]). In experiments using F3P 1000U/L phosphatase was used in some experiments to cleave the phosphate. Some experiments were conducted in the presence and absence of butyryl cholinesterase (BuCHE, 1000 U/L) to cleave the adipate in DiOHF3HA and F3HA.

aortic rings = experiment: Effect on SNP relaxation of precontracted rat aortic rings; assay type: cell-based
Description: as §1

[4] = tested on: rat aorta precontracted with PE; experiment: Direct relaxation of PE/U46619-precontracted rat aortic rings; assay type: cell-based
Description: Following testing of endothelial integrity, rings were repeatedly washed and re-equilibrated for 30 minutes before the addition of PE (10^−8−2×10^−7 M) and 9,11-dideoxy-9α, 11α-epoxymethano-prostaglandin F2α (U46619, 10^−9-10^−8 M) to produce an active force in the range of 40-60% of KPSS-induced contraction. The level of precontraction was matched between the various groups by adjusting the concentrations of PE and U46619. Cumulative concentration-response curves in the range 10^−8-10^−4 M were conducted for 3′,4′-dihydroxyflavonol, 3-hydroxyflavone-3-hemiadipate, 3′,4′-dihydroxy-3-hemiadipate, 3-hydroxyflavone-3-phosphate.
Experiments were conducted in the presence of an esterase, butyryl cholinesterase (BuCHE, 1000 U/L) for the hemiadipate derivates and a phosphatase 1000 U/L) in the case of the phosphate derivatives.
Following testing of endothelial integrity, rings were repeatedly washed and re-equilibrated for 30 minutes before the addition of PE (10^−8−2×10^−7 M) and 9,11-dideoxy-9α, 11α-epoxymethano-prostaglandin F2α (U46619, 10^−9-10^−7 M) to produce an active force in the range of 40-60% of KPSS-induced contraction. Cumulative concentration-response curves in the range 10^−7-10^−4 M were conducted for vehicle, 3′-hydroxyflavonol, F3HA, DiOHF3HA, F3P. Experiments were conducted in the presence and absence of 1000 U/L BuCHE to cleave the adipate in F3HA and DiOHF3HA. In experiments using F3P 1000 U/L phosphatase was used in some experiments to cleave the phosphate.

[5] = Solubility in aqueous solution; assay type: physicochemical; details: water

| SMILES | infarct and injury associated with myocardial ischaemia and reperfusion [1] | effect on superoxide generation ([2]; in the presence of cleaving enzyme (BuCHE for hemiadipates, phosphatase for phosphate, 1000 U/L)) | effect on superoxide generation ([2]; substance alone, no added esterase/phosphatase, up to 10^−4 M, NADPH) | effect on relaxant response to ACh [3] | effect on relaxant response to SNP (aortic rings; in the presence of BuCHE or phosphatase) | effect on relaxant response to SNP (aortic rings; substance alone) | direct relaxing effect on precontracted vessels ([4]; DiOHF3HA plus 1000 U/L BuCHE) | direct relaxing effect on precontracted vessels ([4]; substance alone) | solubility in aqueous solution [5] |
| --- | --- | --- | --- | --- | --- | --- | --- | --- | --- |
| O=c1c(O)c(-c2ccc(O)c(O)c2)oc2ccccc12 [DiOHF, 3′,4′-Dihydroxyflavonol, reference compound] | reduce Infarct and injury associated with myocardial ischaemia and reperfusion | – | – | – | – | – | – | – | – |
| O=C(O)CCCCC(=O)Oc1c(-c2ccc(O)c(O)c2)oc2ccccc2c1=O [DiOHF3HA, 3′,4′-dihydroxyflavone-3-hemiadipate] | – | concentration dependent inhibition of superoxide levels; also recorded: concentration dependent inhibitory effect; also recorded: inhibit superoxide levels produced by rat aorta | no inhibitory effect on superoxide generation; also recorded: no antioxidant or vascular activity | no effect on relaxant responses to ACh or SNP | significantly increased the sensitivity of the relaxant response to SNP | no effect on relaxant responses to ACh or SNP | marked effect on vascular tone; also recorded: direct relaxation of pre-contracted rat aortic rings only in the presence of the esterase; also recorded: cause direct relaxation of rat aortic rings | no effect on PE precontracted vessels | soluble in aqueous solution, particularly water |
